We go through six compounds from DBAASP.

Converted amounts (≈) assume the structure as drawn. Bounds are passed on as bounds.

Test systems include Escherichia coli C600; Pseudomonas aeruginosa; Escherichia coli BW25113.
Test in all cases: ≥ marks a high value that may be exact or a test limit, other limits are often not marked, values filed in µg/mL are converted to µM
For experiment [1], the system named is Pseudomonas aeruginosa CICC 10419.
For experiment [2], the system named is Bacillus subtilis ATCC 6633.
The subject of experiment [3] is Escherichia coli CVCC 195.
For experiment [4], the system named is Salmonella enterica subsp. enterica serovar Pullorum CVCC 1789.
For experiment [5], the system named is Enterococcus faecium CMCC 1.2136.
For experiment [6], the system named is Salmonella enterica subsp. enterica serovar Typhimurium ATCC 14028.
The test system of experiment [7] is Streptococcus suis CVCC 606.
The test system of experiment [8] is Salmonella enterica subsp. enterica serovar Enteritidis CVCC 3377.
In experiment [9] the test system is Escherichia coli O157:H7 CICC 21530.
The subject of experiment [10] is Escherichia coli CVCC 1515.
The test system of experiment [11] is Pseudomonas aeruginosa CICC 21630.
For experiment [12], the system named is Salmonella enterica subsp. enterica serovar Pullorum CVCC 1802.
Experiment [13] relates to Staphylococcus aureus ATCC 43300.
Experiment [14] concerns Staphylococcus aureus ATCC 25923.
Experiment [15] relates to Salmonella enterica subsp. enterica serovar Choleraesuis CVCC 503.
Experiment [16] concerns Bacillus subtilis VKM B-501.
Experiment [17] has as its system Staphylococcus aureus 209P.
The subject of experiment [18] is Bacillus thuringiensis ATCC 10792.
The subject of experiment [19] is Bacillus cereus ATCC 11778.
Experiment [20] has as its system Enterococcus faecium CCT 5079.
The test system of experiment [21] is Staphylococcus aureus CCT 6538.
Experiment [22] has as its system Escherichia coli CCT 1457.
Experiment [23] has as its system Enterococcus hirae ATCC 10541.
Experiment [24] concerns Streptococcus mutans AU159.
Experiment [25] deals with Pseudomonas aeruginosa ATCC 13388.
The subject of experiment [26] is Micrococcus luteus ATCC 4698.
For experiment [27], the system named is Pseudomonas aeruginosa ATCC 15422.
In experiment [28] the test system is Staphylococcus aureus CCT 2580.
Experiment [29] deals with Escherichia coli ATCC 11775.
Experiment [30] has as its system Staphylococcus epidermidis ATCC 12228.
Experiment [31] relates to Escherichia coli ATCC 25922.
The subject of experiment [32] is Salmonella enterica subsp. enterica serovar Choleraesuis ATCC 10708.
In experiment [33] the test system is Streptococcus pneumoniae ATCC 11733.
The test system of experiment [34] is Escherichia coli BL21(DE3).
The subject of experiment [35] is Pseudomonas aeruginosa ATCC 27853.
Experiment [36] has as its system Pseudomonas aeruginosa ATCC 9027.
The test system of experiment [37] is Staphylococcus aureus ATCC 19636.
Experiment [38] has as its system Staphylococcus aureus ATCC 29213.
The test system of experiment [39] is Escherichia coli BW25113 ΔsbmA.

Consider `CC(C)[C@H](NC(=O)CNC(=O)[C@H](CC(N)=O)NC(=O)[C@H](CCCN=C(N)N)NC(=O)[C@H](Cc1ccc(O)cc1)NC(=O)[C@@H](NC(=O)[C@H](C)NC(=O)[C@@H](NC(=O)[C@H](CC(N)=O)NC(=O)[C@H](Cc1c[nH]c2ccccc12)NC(=O)[C@H](C)NC(=O)[C@H](Cc1ccccc1)NC(=O)CN)C(C)C)C(C)C)C(=O)N[C@@H](CCCN=C(N)N)C(=O)N[C@H](C(=O)N[C@@H](C)C(=O)N[C@@H](Cc1cnc[nH]1)C(=O)N[C@@H](CCCN=C(N)N)C(=O)N[C@@H](CCCN=C(N)N)C(=O)N[C@@H](C)C(=O)N[C@@H](CC(N)=O)C(=O)O)C(C)C` [GFAWNVAVYRNGVRVAHRRAN], for which the MIC in experiment [1] is at least 53 µM; in [2], 1.66 µM (≈ 4 µg/mL); in experiment [3], 13.3 µM (≈ 32 µg/mL); in experiment [4], at least 53 µM; in experiment [5], 6.63 µM (≈ 16 µg/mL); in experiment [6] it was over 26.5 µM. The MIC in experiment [7] was at least 53 µM; in [8], 0.414 µM (≈ 1 µg/mL); in experiment [9], 6.63 µM (≈ 16 µg/mL); in [10], 6.63 µM (≈ 16 µg/mL); in experiment [11], at least 53 µM; in [12], 13.3 µM (≈ 32 µg/mL). Moreover, the MIC is over 26.5 µM in experiment [13], 0.829 µM (≈ 2 µg/mL) in [14] and 26.5 µM (≈ 64 µg/mL) in [15].

With `CC[C@H](C)[C@H](NC(=O)[C@H](C)NC(=O)[C@H](CCCCN)NC(=O)[C@H](CCCN=C(N)N)NC(=O)CNC(=O)[C@H](CCCCN)NC(=O)[C@H](CCCCN)NC(=O)[C@H](CCCCN)NC(=O)[C@@H](NC(=O)[C@H](CC(C)C)NC(=O)[C@H](CCCCN)NC(=O)CNC(=O)[C@H](Cc1ccccc1)NC(=O)[C@H](CC(C)C)NC(=O)CN)[C@@H](C)CC)C(=O)N[C@@H](CO)C(=O)N[C@@H](Cc1ccc(O)cc1)C(=O)N[C@@H](C)C(=O)N[C@H](C(=O)N[C@@H](CCCCN)C(=O)N[C@@H](CCCCN)C(=O)N[C@@H](C)C(=O)N[C@@H](CCCN=C(N)N)C(=O)NCC(=O)N[C@@H](CCCCN)C(=O)N[C@@H](Cc1cnc[nH]1)C(=O)O)C(C)C` [GLFGKLIKKKGRKAISYAVKKARGKH], the MIC in experiment [16] came to 0.7 µM (≈ 2.02 µg/mL); in [17] it was 18 µM (≈ 51.9 µg/mL); in the experiment with Escherichia coli C600, 6 µM (≈ 17.3 µg/mL).

For the compound `CC[C@H](C)[C@H](N)C(=O)N[C@@H](CC(N)=O)C(=O)N[C@@H](Cc1c[nH]c2ccccc12)C(=O)N[C@@H](CC(C)C)C(=O)N[C@@H](C)C(=O)N[C@H](C(=O)N[C@@H](C)C(=O)N[C@@H](C)C(=O)N[C@@H](CCCCN)C(=O)N[C@H](C(=O)N[C@@H](C)C(=O)NCC(=O)N[C@@H](CCSC)C(=O)N[C@@H](CC(C)C)C(N)=O)C(C)C)[C@@H](C)CC` [INWLAIAAKVAGML], the MIC in experiment [18] was at least 85 µM; in [19], at least 85 µM; in experiment [20] it was at least 170 µM; in experiment [6], 340 µM (≈ 500 µg/mL); in [21], 10.9 µM (≈ 16 µg/mL); in experiment [22], at least 170 µM. Further, the MIC in [23] was at least 170 µM; in experiment [24], at least 170 µM; in experiment [25], at least 340 µM; in experiment [26] it was 10.6 µM (≈ 15.6 µg/mL); in [27], at least 340 µM; in experiment [28], 2.72 µM (≈ 4 µg/mL). Further, the MIC in experiment [29] is at least 340 µM; in experiment [30] it was 10.9 µM (≈ 16 µg/mL); in experiment [31], 170 µM (≈ 250 µg/mL); in experiment [32], at least 340 µM; in [14], 10.9 µM (≈ 16 µg/mL); in experiment [33] it was 0.68 µM (≈ 0.999 µg/mL).

`CC[C@H](C)[C@H](NC(=O)[C@@H]1CCCN1C(=O)[C@H](CC(C)C)NC(=O)[C@H](CC(C)C)NC(=O)[C@H](CCCCN)NC(=O)[C@@H](N)CCCCN)C(=O)N[C@H](C(=O)N[C@@H](CCCCN)C(=O)N[C@@H](CC(N)=O)C(=O)N[C@@H](CC(C)C)C(=O)N[C@@H](CC(C)C)C(=O)N[C@@H](CCCCN)C(=O)N[C@@H](CO)C(=O)N[C@@H](CC(C)C)C(=O)N[C@@H](CC(C)C)C(=O)O)C(C)C` [KKLLPIVKNLLKSLL]: the MIC in the experiment on Pseudomonas aeruginosa came to 2.5 µM (≈ 4.3 µg/mL); in experiment [34] it was 0.2 µM (≈ 0.344 µg/mL); in experiment [30], 0.025 µM (≈ 0.043 µg/mL).

Consider `CC(C)C[C@H](NC(=O)[C@H](Cc1c[nH]c2ccccc12)NC(=O)[C@H](CCCCN)NC(=O)[C@H](CC(C)C)NC(=O)[C@H](Cc1c[nH]c2ccccc12)NC(=O)[C@H](C)NC(=O)[C@H](CCCN=C(N)N)NC(=O)[C@H](Cc1c[nH]c2ccccc12)NC(=O)[C@H](CCCCN)NC(=O)[C@@H](N)CCCCN)C(=O)N[C@@H](C)C(=O)N[C@@H](CCCCN)C(=O)N[C@@H](CCCCN)C(=O)O` [KKWRAWLKWLAKK], for which the MIC in [35] worked out at 0.918 µM (≈ 1.6 µg/mL); in experiment [36], 1.78 µM (≈ 3.1 µg/mL); in experiment [37] it was 0.918 µM (≈ 1.6 µg/mL); in experiment [38], 7.17 µM (≈ 12.5 µg/mL); in experiment [31], 1.78 µM (≈ 3.1 µg/mL); in experiment [14], 7.17 µM (≈ 12.5 µg/mL).

As for `CC[C@H](C)[C@H](NC(=O)[C@@H]1CCCN1C(=O)[C@@H]1CCCN1C(=O)[C@H](CCCN=C(N)N)NC(=O)[C@H](Cc1ccccc1)NC(=O)[C@@H](N)CCCN=C(N)N)C(=O)N[C@@H](CCCN=C(N)N)C(=O)N[C@@H](CCCN=C(N)N)C(=O)N1CCC[C@H]1C(=O)N1CCC[C@H]1C(=O)N[C@H](C(=O)N[C@@H](CCCN=C(N)N)C(=O)N1CCC[C@H]1C(=O)N1CCC[C@H]1C(=O)N[C@@H](Cc1ccccc1)C(=O)N[C@@H](CCCN=C(N)N)C(=O)N1CCC[C@H]1C(=O)N1CCC[C@H]1C(=O)N[C@@H](Cc1ccccc1)C(=O)N[C@@H](CCCN=C(N)N)C(=O)N1CCC[C@H]1C(=O)N1CCC[C@H]1C(=O)N[C@H](C(=O)N[C@@H](CCCN=C(N)N)C(=O)N1CCC[C@H]1C(=O)O)C(C)C)[C@@H](C)CC` [RFRPPIRRPPIRPPFRPPFRPPVRP], the MIC in experiment [39] was found to be 8 µM (≈ 24.8 µg/mL); in the experiment with Escherichia coli BW25113 it was 1 µM (≈ 3.1 µg/mL).
